Assay results reported in PMC10709440, “High-throughput ligand profile characterization in novel cell lines expressing seven heterologous insect olfactory receptors for the detection of volatile plant biomarkers” (Scientific Reports, 2023).
Read-outs that look alike come from different tables or passages of the source.

Columns and labels:
Drosophila OR71a = target: T1, Drosophila OR71a (Drosophila melanogaster, UniProt Q9VUK5); assay: Calcium ion fluorescence (GCaMP6) assay, OR71a stable HEK293 cell line; type: cell-based; settings: for activation at 1 µM / activation at 10 µM / activation at 100 µM: HEK293, read-out: OR71a response (VUAA1-normalized response); for Average response / OR71a response (VUAA1-normalized) at 1 μM / OR71a response (VUAA1-normalized) at 10 μM / OR71a response (VUAA1-normalized) at 100 μM: OR71a cell line; for Average response: VUAA1-normalized response, mean of biological replicates; for OR71a Average response (VUAA1-normalized): 50 μM VUAA1 = 1
T1 construct: expressed in transfected cells
T1 sequence (Q9VUK5 1-378): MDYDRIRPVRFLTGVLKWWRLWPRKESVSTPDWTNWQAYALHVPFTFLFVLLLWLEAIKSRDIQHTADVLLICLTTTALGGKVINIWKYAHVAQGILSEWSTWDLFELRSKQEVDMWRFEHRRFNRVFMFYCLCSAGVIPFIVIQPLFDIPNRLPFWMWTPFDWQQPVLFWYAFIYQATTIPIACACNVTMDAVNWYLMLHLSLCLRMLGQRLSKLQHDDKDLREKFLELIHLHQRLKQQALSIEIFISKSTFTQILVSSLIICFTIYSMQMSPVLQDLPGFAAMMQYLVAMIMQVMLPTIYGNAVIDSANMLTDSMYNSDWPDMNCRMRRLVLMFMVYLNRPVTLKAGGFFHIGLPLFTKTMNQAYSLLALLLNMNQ
T1 sequence (Q9VNB5 1-486 partner): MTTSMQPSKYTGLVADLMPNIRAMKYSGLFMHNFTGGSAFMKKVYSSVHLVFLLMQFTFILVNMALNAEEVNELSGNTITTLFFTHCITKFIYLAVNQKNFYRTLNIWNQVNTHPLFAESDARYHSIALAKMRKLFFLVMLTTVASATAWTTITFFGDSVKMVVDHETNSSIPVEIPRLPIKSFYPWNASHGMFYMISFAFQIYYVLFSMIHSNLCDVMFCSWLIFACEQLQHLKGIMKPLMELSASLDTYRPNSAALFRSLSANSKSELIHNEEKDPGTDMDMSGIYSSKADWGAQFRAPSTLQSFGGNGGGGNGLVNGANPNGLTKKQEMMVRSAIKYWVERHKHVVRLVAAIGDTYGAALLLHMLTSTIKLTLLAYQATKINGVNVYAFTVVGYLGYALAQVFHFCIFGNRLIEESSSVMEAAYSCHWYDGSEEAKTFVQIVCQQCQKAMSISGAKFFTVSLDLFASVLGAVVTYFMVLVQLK
Outline: (§1)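 Responses are VUAA1-normalized ΔF: each VOC-evoked calcium signal, (FMAX−F0)/F0 over 30 s after injection, divided by the same line's mean 50 µM VUAA1 response. Cells were doxycycline-induced HEK293 with GCaMP6 and the cognate Drosophila OR, in HEPES buffer pH 7.3; ligands tested 0.01–100 μM.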

Drosophila OR98a = target: T2, Drosophila OR98a (Drosophila melanogaster, UniProt Q9VAZ3); assay: Calcium ion fluorescence (GCaMP6) assay, OR98a stable HEK293 cell line; type: cell-based; settings: for OR98a response (VUAA1-normalized) at 1 μM / OR98a response (VUAA1-normalized) at 10 μM / OR98a response (VUAA1-normalized) at 100 μM / Average response: OR98a cell line; for Average response: average of biological replicates, fraction of VUAA1 response
T2 construct: expressed in transfected cells
T2 sequence (Q9VAZ3 1-397): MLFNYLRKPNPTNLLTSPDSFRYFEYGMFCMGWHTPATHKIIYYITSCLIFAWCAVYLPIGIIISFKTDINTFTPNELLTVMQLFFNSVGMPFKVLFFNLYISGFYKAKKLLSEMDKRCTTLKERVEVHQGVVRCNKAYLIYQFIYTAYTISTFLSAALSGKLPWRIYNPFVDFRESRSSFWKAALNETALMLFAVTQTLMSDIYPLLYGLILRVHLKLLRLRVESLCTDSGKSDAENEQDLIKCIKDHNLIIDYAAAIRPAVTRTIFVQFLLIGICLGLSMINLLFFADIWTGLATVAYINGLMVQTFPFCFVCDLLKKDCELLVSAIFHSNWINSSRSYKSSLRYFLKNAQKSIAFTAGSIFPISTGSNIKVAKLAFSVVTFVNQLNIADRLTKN
T2 sequence (Q9VNB5 1-486 partner): T1 sequence (Q9VNB5 1-486 partner)
Outline: as §1

[1] = ligand concentration 1 (unit not given), threshold 0.05, below shown as 0
[2] = ligand concentration 10 (unit not given), threshold 0.05, below shown as 0
[3] = ligand concentration 100 (unit not given), threshold 0.05, below shown as 0
[4] = HEK293, read-out: Average response
[5] = HEK293, read-out: OR98a response (VUAA1-normalized response)
[6] = ligand concentration 1 (unit not given), 0.05 threshold, values below shown as 0
[7] = ligand concentration 10 (unit not given), 0.05 threshold, values below shown as 0
[8] = ligand concentration 100 (unit not given), 0.05 threshold, values below shown as 0
[9] = HEK293, read-out: OR98a Average response (VUAA1-normalized)
[10] = concentration 1, normalized fluorescence change, values below 0.05 threshold given as 0
[11] = concentration 10, normalized fluorescence change, values below 0.05 threshold given as 0
[12] = concentration 100, normalized fluorescence change, values below 0.05 threshold given as 0

Structure (SMILES)	Average response (Drosophila OR71a; cc. 1 µM)	Average response (Drosophila OR71a; cc. 10 µM)	Average response (Drosophila OR71a; cc. 100 µM)	DF norm AVERAGE OR71a (Drosophila OR71a; [1])	DF norm AVERAGE OR71a (Drosophila OR71a; [2])	DF norm AVERAGE OR71a (Drosophila OR71a; [3])	activation at 1 µM (Drosophila OR98a; [4]) [%]	activation at 10 µM (Drosophila OR98a; [4]) [%]	activation at 100 µM (Drosophila OR98a; [4]) [%]	DF norm AVERAGE OR98a (Drosophila OR98a; [1])	DF norm AVERAGE OR98a (Drosophila OR98a; [2])	DF norm AVERAGE OR98a (Drosophila OR98a; [3])	OR71a response (VUAA1-normalized) at 1 μM (Drosophila OR71a; VOC concentration 1 μM)	OR71a response (VUAA1-normalized) at 10 μM (Drosophila OR71a; VOC concentration 10 μM)	OR71a response (VUAA1-normalized) at 100 μM (Drosophila OR71a; VOC concentration 100 μM)	OR98a response (VUAA1-normalized) at 1 μM (Drosophila OR98a; VOC concentration 1 μM)	OR98a response (VUAA1-normalized) at 10 μM (Drosophila OR98a; VOC concentration 10 μM)	OR98a response (VUAA1-normalized) at 100 μM (Drosophila OR98a; VOC concentration 100 μM)	also measured
CCOC(=O)CC [ethyl propionate]	0.0185	0.00	0.00	0	0	0	2	2	1.5	0	0	0							activation at 1 µM (Drosophila OR71a): 0%; activation at 10 µM (Drosophila OR71a): 0%; activation at 100 µM (Drosophila OR71a): 0%; activation at 1 µM (Drosophila OR98a; [5]): 0%; activation at 10 µM (Drosophila OR98a; [5]): 0%; activation at 100 µM (Drosophila OR98a; [5]): 0%
CC/C=C\CCO [Z-3-hexenol]													0.00	0.00	0.00	0.00	0.17	0.11	
COC(=O)c1ccccc1O [methyl salicylate]	0.00	0.0108	0.12	0	0	0.1155	3	1.79	4	0	0	0	0.00	0.00	0.12	0.00	0.00	0.00	OR71a Average response (VUAA1-normalized) (Drosophila OR71a; 1 μM VOC): 0.00; OR71a Average response (VUAA1-normalized) (Drosophila OR71a; 10 μM VOC): 0.01; OR71a Average response (VUAA1-normalized) (Drosophila OR71a; 100 μM VOC): 0.12
CCCCCCCCC=O [nonanal]	0.00	0.00	0.00	0	0	0	0	0	5.5	0	0	0.05502	0.00	0.00	0.00	0.00	0.00	0.055	
CCCCCCCCCCCCCC [tetradecane]	0.0218	0.0215	0.0462				0	12	10				0.00	0.00	0.00	0.00	0.12	0.10	DF norm AVERAGE OR71a (Drosophila OR71a; [6]): 0; DF norm AVERAGE OR71a (Drosophila OR71a; [7]): 0; DF norm AVERAGE OR71a (Drosophila OR71a; [8]): 0; activation at 1 µM (Drosophila OR98a; [9]): 0%; activation at 10 µM (Drosophila OR98a; [9]): 12%; activation at 100 µM (Drosophila OR98a; [9]): 10%; DF norm AVERAGE OR98a (Drosophila OR98a; [6]): 0; DF norm AVERAGE OR98a (Drosophila OR98a; [7]): 0.1151; DF norm AVERAGE OR98a (Drosophila OR98a; [8]): 0.09569
CC1=CCC[C@@]2(C)[C@@H]3CC[C@]12CC3(C)C [(−)-α-neoclovene]	0.00	0.00	0.0221																OR71a response (VUAA1-normalized response) (Drosophila OR71a; VOC concentration 1 μM): 0.00; OR71a response (VUAA1-normalized response) (Drosophila OR71a; VOC concentration 10 μM): 0.00; OR71a response (VUAA1-normalized response) (Drosophila OR71a; VOC concentration 100 μM): 0.00; DF norm AVERAGE OR71a (Drosophila OR71a; [10]): 0; DF norm AVERAGE OR71a (Drosophila OR71a; [11]): 0; DF norm AVERAGE OR71a (Drosophila OR71a; [12]): 0; OR98a response (VUAA1-normalized response) (Drosophila OR98a; VOC concentration 1 μM): 0.15; OR98a response (VUAA1-normalized response) (Drosophila OR98a; VOC concentration 10 μM): 0.00; OR98a response (VUAA1-normalized response) (Drosophila OR98a; VOC concentration 100 μM): 0.00; Average response (Drosophila OR98a; cc. 1 µM): 0.15; Average response (Drosophila OR98a; cc. 10 µM): 0.00; Average response (Drosophila OR98a; cc. 100 µM): 0.0421; DF norm AVERAGE OR98a (Drosophila OR98a; [10]): 0.1483; DF norm AVERAGE OR98a (Drosophila OR98a; [11]): 0; DF norm AVERAGE OR98a (Drosophila OR98a; [12]): 0
CCCCOC(C)=O [butyl acetate]	0.00	0.00	0.0132	0	0	0	3.31	0	4.29	0	0	0							activation at 1 µM (Drosophila OR71a): 0%; activation at 10 µM (Drosophila OR71a): 0%; activation at 100 µM (Drosophila OR71a): 0%; activation at 1 µM (Drosophila OR98a; [5]): 0%; activation at 10 µM (Drosophila OR98a; [5]): 0%; activation at 100 µM (Drosophila OR98a; [5]): 0%
